Laboratory results published in PubChem BioAssay AID1259407 (Chemical Carcinogenesis Research Information System (CCRIS), 2018).
Activity calls are given as the source filed them. No rule for the calls is given here.

Test system: CCRIS mutagenicity, Ames/micronucleus/aberration tests
Assay: CCRIS mutagenicity studies
[1] = Test System: AMES SALMONELLA TYPHIMURIUM, Strain/Indicator: TA100, Metabolic Activation: RAT, LIVER, S-9, PHENOBARBITAL, Method: STANDARD PLATE
[2] = Test System: AMES SALMONELLA TYPHIMURIUM, Strain/Indicator: TA100, Metabolic Activation: NONE, Method: STANDARD PLATE

For `Cc1c2ccccc2cc2ccc3ccccc3c12`, which mutagenic call (Test System: AMES SALMONELLA TYPHIMURIUM, Strain/Indicator: TA98, Method: STANDARD PLATE) is on record?
The mutagenic call was “active; positive”.

What about the mutagenic call (Test System: AMES SALMONELLA TYPHIMURIUM, Strain/Indicator: TA100, Metabolic Activation: RAT, INTACT HEPATOCYTES, AROCLOR 1254, Method: PREINCUBATION) of the same molecule?
Its mutagenic call is “active; positive”.

And the mutagenic call [1]?
Its mutagenic call is “active; positive”.

What about the mutagenic call (Test System: AMES SALMONELLA TYPHIMURIUM, Strain/Indicator: TA100, Metabolic Activation: RAT, NADPH-FORTIFIED HOMOGENIZED HEPATOCYTES, AROCLOR 1254, Method: PREINCUBATION) of the same molecule?
Its mutagenic call is “active; positive”.

What about the mutagenic call (Test System: AMES SALMONELLA TYPHIMURIUM, Strain/Indicator: TA100, Metabolic Activation: RAT, SONICATED HEPATOCYTES, AROCLOR 1254, Method: PREINCUBATION) of the same molecule?
The mutagenic call was “active; positive”.

What about the mutagenic call (Test System: AMES SALMONELLA TYPHIMURIUM, Strain/Indicator: TA100, Method: STANDARD PLATE) of the same molecule?
The mutagenic call was “active; positive”.

With `[N-]=[N+]=N[C@H](c1ccccc1)[C@@H](O)CO` as the molecule, how does the mutagenic call (Test System: AMES SALMONELLA TYPHIMURIUM, Strain/Indicator: TA100, Metabolic Activation: RAT, LIVER, S-9, PCB, Method: PREINCUBATION) read?
The mutagenic call was “active; positive”.

For `CCCCCCC[N+](=O)[O-]`, which mutagenic call (Test System: UDS RAT HEPATOCYTES, Strain/Indicator: THY INCORP, Metabolic Activation: NONE) is on record?
The mutagenic call was “inactive; negative”.

`CS(=O)CCC(=O)N1[C@@H](c2ccccc2O)SC[C@H]1C(=O)O` (stereo partly drawn) was tested. Which mutagenic call (Test System: AMES SALMONELLA TYPHIMURIUM, Strain/Indicator: TA98, Metabolic Activation: NONE, Method: STANDARD PLATE) did it give?
Its mutagenic call is “inactive; negative”.

What about the mutagenic call [2] of the same molecule?
The mutagenic call was “inactive; negative”.

What about the mutagenic call (Test System: AMES SALMONELLA TYPHIMURIUM, Strain/Indicator: TA1535, Metabolic Activation: NONE, Method: STANDARD PLATE) of the same molecule?
The mutagenic call was “inactive; negative”.

What about the mutagenic call (Test System: AMES SALMONELLA TYPHIMURIUM, Strain/Indicator: TA1537, Metabolic Activation: NONE, Method: STANDARD PLATE) of the same molecule?
The mutagenic call was “inactive; negative”.

And the mutagenic call (Test System: AMES SALMONELLA TYPHIMURIUM, Strain/Indicator: TA1538, Metabolic Activation: NONE, Method: STANDARD PLATE)?
Its mutagenic call is “inactive; negative”.

And the mutagenic call (Test System: E. COLI, Strain/Indicator: WP2, Metabolic Activation: NONE, Method: STANDARD PLATE)?
Its mutagenic call is “inactive; negative”.

What about the mutagenic call (Test System: E. COLI, Strain/Indicator: WP2 UVRA, Metabolic Activation: NONE, Method: STANDARD PLATE) of the same molecule?
Its mutagenic call is “inactive; negative”.

Which mutagenic call (Test System: AMES SALMONELLA TYPHIMURIUM, Strain/Indicator: TA98, Metabolic Activation: NONE) does the source give for `O=C1CCCc2ccc3c([N+](=O)[O-])c4ccccc4cc3c21` here?
Its mutagenic call is “inactive; negative”.

And the mutagenic call (Test System: AMES SALMONELLA TYPHIMURIUM, Strain/Indicator: TA98, Metabolic Activation: S-9)?
The mutagenic call was “inactive; negative”.

What about the mutagenic call (Test System: AMES SALMONELLA TYPHIMURIUM, Strain/Indicator: TA100, Metabolic Activation: NONE) of the same molecule?
The mutagenic call was “inactive; negative”.

What about the mutagenic call (Test System: AMES SALMONELLA TYPHIMURIUM, Strain/Indicator: TA100, Metabolic Activation: S-9) of the same molecule?
Its mutagenic call is “inactive; negative”.

Which mutagenic call [2] does the source give for `CC(=O)O[C@@H]1[C@H](OC(C)=O)COC(Nc2ccc([N+](=O)[O-])cc2)[C@@H]1OC(C)=O` (stereo partly drawn) here?
The mutagenic call was “active; positive”.

How did the mutagenic call (Test System: AMES SALMONELLA TYPHIMURIUM, Strain/Indicator: TA1538, Metabolic Activation: HAMSTER, LIVER, S-9, Method: STANDARD PLATE) turn out when `Nc1c(S(=O)(=O)O)cc2cc(S(=O)(=O)O)ccc2c1N=Nc1ccc(-c2ccc(N=Nc3c(N)c(S(=O)(=O)O)cc4cc(S(=O)(=O)O)ccc34)c(Cl)c2)cc1Cl` was run?
Its mutagenic call is “inactive; negative”.

What about the mutagenic call (Test System: AMES SALMONELLA TYPHIMURIUM, Strain/Indicator: TA1538, Metabolic Activation: RAT, LIVER, S-9, AROCLOR 1254, Method: STANDARD PLATE) of the same molecule?
The mutagenic call was “inactive; negative”.

Which results are given for `COc1c2ccoc2nc2c(OC)cccc12`?
mutagenic call (Test System: AMES SALMONELLA TYPHIMURIUM, Strain/Indicator: TA98, Metabolic Activation: RAT, LIVER, MICROSOMES, PHENOBARBITAL, Method: STANDARD PLATE): active; positive; mutagenic call (Test System: AMES SALMONELLA TYPHIMURIUM, Strain/Indicator: TA98, Metabolic Activation: RAT, LIVER, S-9, PHENOBARBITAL, Method: STANDARD PLATE): active; positive; mutagenic call (Test System: AMES SALMONELLA TYPHIMURIUM, Strain/Indicator: TA100, Metabolic Activation: RAT, LIVER, MICROSOMES, PHENOBARBITAL, Method: STANDARD PLATE): active; positive; mutagenic call [1]: active; positive; mutagenic call (Test System: AMES SALMONELLA TYPHIMURIUM, Strain/Indicator: TA1535, Metabolic Activation: RAT, LIVER, MICROSOMES, PHENOBARBITAL, Method: STANDARD PLATE): inactive; negative; mutagenic call (Test System: AMES SALMONELLA TYPHIMURIUM, Strain/Indicator: TA1538, Metabolic Activation: RAT, LIVER, MICROSOMES, PHENOBARBITAL, Method: STANDARD PLATE): active; positive
